Measurements taken from ChEMBL document CHEMBL3621158, “Synthesis of new betulinic acidpeptide conjugates and in vivo and in silico studies of the influence of peptide moieties on the triterpenoid core activity” (2015).

What was measured:
Type in all cases: functional
Mus musculus [1] = test: Anti-inflammatory activity in mouse model of histamine-induced paw edema assessed as inhibition of inflammation at 50 mg/kg, ip dosed 1 hr before histamine injection
Mus musculus [2] = test: Anti-inflammatory activity in mouse model of histamine-induced paw edema assessed as inhibition of inflammation at 50 mg/kg, ip dosed 1 hr before histamine injection relative to 50 mg/kg, ip indomethacin
Mus musculus [3] = test: Anti-inflammatory activity in mouse model of histamine-induced paw edema assessed as inhibition of inflammation at 20 mg/kg, po dosed 1 hr before histamine injection

Row | Structure (SMILES) | inhibition in vivo at 50 mg/kg (Mus musculus [1]) [%] | inhibition in vivo at 50 mg/kg (Mus musculus [2]) [%] | inhibition in vivo at 20 mg/kg (Mus musculus [3]) [%]
1 | C#C[C@]1(O)CC[C@]2(C)[C@H]3CC[C@@H]4[C@H]5[C@H](C(=C)C)CC[C@]5(C(=O)O)CC[C@@]4(C)[C@]3(C)CC[C@H]2C1(C)C | 25.2 | 60 | 
2 | C=C(C)[C@@H]1CC[C@]2(C(=O)O)CC[C@]3(C)[C@H](CC[C@@H]4[C@@]5(C)CC[C@@](O)(c6cn(C[C@H](C)N(C(=O)[C@@H](NC(=O)OC(C)(C)C)[C@@H](C)CC)C(=O)C(C)(C)NCc7ccc(OC)cc7OC)nn6)C(C)(C)[C@@H]5CC[C@]43C)[C@@H]12 | 31.2 | 74.3 | 
3 | C=C(C)[C@@H]1CC[C@]2(C(=O)O)CC[C@]3(C)[C@H](CC[C@@H]4[C@@]5(C)CC[C@@](O)(c6cn(CCNC(=O)C(C)(C)N(Cc7ccc(OC)cc7OC)C(=O)[C@H](Cc7c[nH]cn7)NC(=O)OC(C)(C)C)nn6)C(C)(C)[C@@H]5CC[C@]43C)[C@@H]12 | 33.4 | 79 | 
4 | COc1ccc2c(c1)c(CC(=O)O)c(C)n2C(=O)c1ccc(Cl)cc1 [INDOMETHACIN] | 42 | 78 | 32.8
5 | C=C(C)[C@@H]1CC[C@]2(C(=O)O)CC[C@]3(C)[C@H](CC[C@@H]4[C@@]5(C)CC[C@@](O)(c6cn(C[C@H](Cc7ccccc7)N(C(=O)[C@H](CO)NC(=O)OC(C)(C)C)C(=O)C(C)(C)NCc7ccc(OC)cc7OC)nn6)C(C)(C)[C@@H]5CC[C@]43C)[C@@H]12 | 23 | 55 | 
6 | C=C(C)[C@@H]1CC[C@]2(C(=O)O)CC[C@]3(C)[C@H](CC[C@@H]4[C@@]5(C)CC[C@@](O)(c6cn(C[C@H](C)N(C(=O)[C@H](Cc7ccccc7)NC(=O)OC(C)(C)C)C(=O)C(C)(C)NCc7ccc(OC)cc7OC)nn6)C(C)(C)[C@@H]5CC[C@]43C)[C@@H]12 | 2.5 | 6 | 
7 | C=C(C)[C@@H]1CC[C@]2(C(=O)O)CC[C@]3(C)[C@H](CC[C@@H]4[C@@]5(C)CC[C@](O)(c6cn(C[C@H](C)N(C(=O)[C@@H](NC(=O)OC(C)(C)C)[C@@H](C)CC)C(=O)C(C)(C)NCc7ccc(OC)cc7OC)nn6)C(C)(C)[C@@H]5CC[C@]43C)[C@@H]12 | 14.5 | 34.5 | 
8 | C=C(C)[C@@H]1CC[C@]2(C(=O)O)CC[C@]3(C)[C@H](CC[C@@H]4[C@@]5(C)CC[C@@](O)(c6cn(C[C@H](Cc7ccccc7)N(C(=O)[C@H](Cc7cc8ccccc8[nH]7)NC(=O)OC(C)(C)C)C(=O)C(C)(C)NCc7ccc(OC)cc7OC)nn6)C(C)(C)[C@@H]5CC[C@]43C)[C@@H]12 | 38.8 | 92 | 
